In ChEMBL document CHEMBL1143791, “Synthesis of isonicotinoylhydrazones from anacardic acid and their in vitro activity against Mycobacterium smegmatis” (2007):
≈ marks a conversion by molar mass, not a printed value. Calls of active or inactive are those of the source. The rule behind the calls is not given here.

How the values were obtained:
[1] = test system: Mycolicibacterium smegmatis; assay: Antimicrobial activity against Mycobacterium smegmatis str. MC2 155 after 24 hrs by broth dilution method; type: functional; details: str. MC2 155, 24 h
[2] = test system: Mycobacterium tuberculosis; assay: Antimicrobial activity against Mycobacterium tuberculosis H37Rv at 10 ug/ml after 6 weeks; type: functional, organism-based
[3] = test system: Mycolicibacterium smegmatis; assay: Antimicrobial activity against Mycobacterium smegmatis mc2 155 after 24 hrs at 0.5 ug/ml by broth dilution method; type: functional, organism-based; details: str. MC2 155
[4] = test system: Mycobacterium tuberculosis; assay: Antimicrobial activity against Mycobacterium tuberculosis H37Rv at 0.5 ug/ml after 6 weeks; type: functional, organism-based
[5] = test system: Mycolicibacterium smegmatis; assay: Antimicrobial activity against Mycobacterium smegmatis str. MC2 155 after 24 hrs at 100 ug/ml by broth dilution method; type: functional, organism-based
[6] = test system: Mycolicibacterium smegmatis; assay: Antimicrobial activity against Mycobacterium smegmatis str. MC2 155 after 24 hrs at 1 ug/ml by broth dilution method; type: functional

SMILES | MIC [1] [µg/mL] | Activity [2] | Activity [3] | Activity [4] | Activity [5] | Activity [6] [%]
O=C(N/N=C/CCCCCCCc1c([N+](=O)[O-])ccc(O)c1C(=O)O)c1ccncc1 | 5 (≈ 11.7 µM) | Active | inactive | inactive |  | 
CCCCCCCCCCCCCCCc1c([N+](=O)[O-])ccc(O)c1C(=O)O |  |  |  |  | inactive | 
NNC(=O)c1ccncc1 [ISONIAZID] | 1.5 (≈ 10.9 µM) |  |  |  |  | 36
C=CC/C=C\C/C=C\CCCCCCCc1cccc(O)c1C(=O)O |  |  |  |  | inactive | 
O=C(N/N=C/CCCCCCCc1cccc(O)c1C(=O)O)c1ccncc1 | 4 (≈ 10.4 µM) | Active | inactive | inactive |  | 
